From US6461834B1, “Clostripain catalyzed amidation of peptides” (Bionebraska, Inc., priority 1998, dated 2002)

Tests used:
[1] = format: physicochemical
[2] = molecular target: T1, clostripain (Hathewaya histolytica, UniProt P09870); assay: Inhibition of clostripain amidation activity by organic solvent (GLP-1(7-36)Ala-Phe-Ala-Hse substrate, HPLC); format: biochemical; conditions: 2 M ammonium acetate, pH 10.4, 45° C., maximal attained amidation level
T1 construct: This protease is a heterodimer; purchased Worthington
Method: Maximal attained amidation level in the presence of various organic solvents was determined with GLP-1(7-36)Ala-Phe-Ala-Hse (SEQ ID NO:1; 2 mg/mL) in 2.5 mM DTT, 1 mM calcium chloride, 2 M ammonium acetate, pH 10.4, at 45° C., with 20 μg clostripain in a 1 mL reaction. Aliquots of the reaction mixture were removed at regular time intervals, quenched with acetic acid and assayed by HPLC analysis on a reverse phase HPLC column.

[3] = molecular target: T1, clostripain; assay: Effect of organic solvent on clostripain proteolytic activity (N-Bz-Phe-Val-Arg-p-nitroanilide substrate, photometric initial rates); format: biochemical; conditions: varying amounts of organic solvent, otherwise as Table III
Method: A substrate solution (1 mL) of 2 mg N-Bz-Phe-Val-Arg-p-nitroanilide in 2.5 mM dithiothreitol, 1 mM calcium chloride, 50 mM Tricine buffer at pH 8.5 was incubated at room temperature with 10 μg of clostripain, in an aqueous solution containing 10% (v/v) of organic solvent. Initial rates were determined by photometric detection of the liberated […].
These reactions were repeated in the presence of varying amounts of organic solvent, and optimal concentrations for proteolytic activity were determined for propylene carbonate (10%), N,N-dimethylformamide (20%), trifluoroethanol (20%), and acetonitrile (20%).

[4] = test system: GLP-1(7-36)Ala-Phe-Ala-Hse; assay: Amidation by other Arg-specific proteases; format: biochemical; conditions: 1 M ammonium hydroxide, pH 10 and 8.5 (cathepsin B also pH 5.5), enzyme:substrate 1:50 to 1:100
Method: GLP-1(7-36)Ala-Phe-Ala-Hse (SEQ ID NO:1) (between 0.5 and 2 mg/mL) was dissolved in 1 M ammonium hydroxide at pH 10 and 8.5 and incubated individually with six different proteolytic enzymes, five of which have a specificity to cleave peptides at the carboxyl peptide bond of arginine residues, similar to that of clostripain. These included trypsin, thrombin, cathepsin B (also tested at pH 5.5), coagulation factor Xa, plasmin and papain. Papain is a thiol protease, albeit one which is not specific to arginyl bonds. […] Enzyme:substrate ratios were between 1:50 to 1:100 and protease specific additives were added where appropriate (e.g., calcium chloride).

| Molecule | optimal concentration for proteolytic activity [3] | production of GLP-1(7-36)NH2 (reversed phase chromatography) [4] | other results |
| --- | --- | --- | --- |
| His-Ala-Glu-Gly-Thr-Phe-Thr-Ser-Asp- Val-Ser-Ser-Tyr-Leu-Glu-Gly-Gln-Ala-Ala-Lys-Glu-Phe-Ile-Ala-Trp-Leu- Val-Lys-Gly-Arg-NH2 [GLP-1(7-36)NH2] | – | – | formation of D-contaminants ([1]; in water, pH about 4 to 8.4, −20° C. to 45° C., similar period of time): essentially no formation of D-contaminants; degradation ([1]; pH 9.4): 9%; degradation into D-contaminants ([1]; pH 10.5): a substantial amount of the peptide was degraded into D-contaminants |
| OCC(F)(F)F [Trifluoroethanol] | – | – | Extent of amidation (% of substrate converted) ([2]; 20% organic solvent): 9% |
| CC1COC(=O)O1 (centres unmarked) [Propylene carbonate] | 10% | – | Extent of amidation (% of substrate converted) ([2]; 10% organic solvent): 29% |
| thrombin | – | None of these proteases produced any GLP-1(7-36)NH2 | – |
| CN(C)C=O [Dimethylformamide, N,N-dimethylformamide] | 20% | – | – |
| trypsin | – | None of these proteases produced any GLP-1(7-36)NH2 | – |
| CC#N [Acetonitrile] | 20% | – | Extent of amidation (% of substrate converted) ([2]; 20% organic solvent): 18% |
| plasmin: proteolytic enzyme cleaving at the carboxyl peptide bond of arginine residues (protein, UniProt P00747 20-580; P00747 581-810, looked up, Plasmin, proteolytic enzyme cleaving at the carboxyl peptide bond of arginine residues) Plasmin heavy chain A: EPLDDYVNTQGASLFSVTKKQLGAGSIEECAAKCEEDEEFTCRAFQYHSKEQQCVIMAENRKSSIIIRMRDVVLFEKKVYLSECKTGNGKNYRGTMSKTKNGITCQKWSSTSPHRPRFSPATHPSEGLEENYCRNPDNDPQGPWCYTTDPEKRYDYCDILECEEECMHCSGENYDGKISKTMSGLECQAWDSQSPHAHGYIPSKFPNKNLKKNYCRNPDRELRPWCFTTDPNKRWELCDIPRCTTPPPSSGPTYQCLKGTGENYRGNVAVTVSGHTCQHWSAQTPHTHNRTPENFPCKNLDENYCRNPDGKRAPWCHTTNSQVRWEYCKIPSCDSSPVSTEQLAPTAPPELTPVVQDCYHGDGQSYRGTSSTTTTGKKCQSWSSMTPHRHQKTPENYPNAGLTMNYCRNPDADKGPWCFTTDPSVRWEYCNLKKCSGTEASVVAPPPVVLLPDVETPSEEDCMFGNGKGYRGKRATTVTGTPCQDWAAQEPHRHSIFTPETNPRAGLEKNYCRNPDGDVGGPWCYTTNPRKLYDYCDVPQCAAPSFDCGKPQVEPKKCPGR Plasmin light chain B: VVGGCVAHPHSWPWQVSLRTRFGMHFCGGTLISPEWVLTAAHCLEKSPRPSSYKVILGAHQEVNLEPHVQEIEVSRLFLEPTRKDIALLKLSSPAVITDKVIPACLPSPNYVVADRTECFITGWGETQGTFGAGLLKEAQLPVIENKVCNRYEFLNGRVQSTELCAGHLAGGTDSCQGDSGGPLVCFEKDKYILQGVTSWGLGCARPNKPGVYVRVSRFVTWIEGVMRNN | – | None of these proteases produced any GLP-1(7-36)NH2 | – |
| clostripain: extracellular thiol endoprotease from Clostridia, high specificity for Arg-Xaa peptide linkages (protein, UniProt P09870 51-181; P09870 191-526, looked up) Clostripain light chain: NKNQKVTIMYYCDADNNLEGSLLNDIEEMKTGYKDSPNLNLIALVDRSPRYSSDEKVLGEDFSDTRLYKIEHNKANRLDGKNEFPEISTTSKYEANMGDPEVLKKFIDYCKSNYEADKYVLIMANHGGGAR Clostripain heavy chain: AICWDDSNLDKNGEADCLYMGEISDHLTEKQSVDLLAFDACLMGTAEVAYQYRPGNGGFSADTLVASSPVVWGPGFKYDKIFDRIKAGGGTNNEDDLTLGGKEQNFDPATITNEQLGALFVEEQRDSTHANGRYDQHLSFYDLKKAESVKRAIDNLAVNLSNENKKSEIEKLRGSGIHTDLMHYFDEYSEGEWVEYPYFDVYDLCEKINKSENFSSKTKDLASNAMNKLNEMIVYSFGDPSNNFKEGKNGLSIFLPNGDKKYSTYYTSTKIPHWTMQSWYNSIDTVKYGLNPYGKLSWCKDGQDPEINKVGNWFELLDSWFDKTNDVTGGVNHYQW | – | produced measureable GLP-1(7-36)NH2 | – |
| papain: thiol protease which is not specific to arginyl bonds (protein, UniProt P00784 134-345, looked up) Papain: IPEYVDWRQKGAVTPVKNQGSCGSCWAFSAVVTIEGIIKIRTGNLNEYSEQELLDCDRRSYGCNGGYPWSALQLVAQYGIHYRNTYPYEGVQRYCRSREKGPYAAKTDGVRQVQPYNEGALLYSIANQPVSVVLEAAGKDFQLYRGGIFVGPCGNKVDHAVAAVGYGPNYILIKNSWGTGWGENGYIRIKRGTGNSYGVCGLYTSSFYPVKN | – | None of these proteases produced any GLP-1(7-36)NH2 | – |
